In PubChem BioAssay AID2060895 (Molecular Pharmacology Branch, DTP, NCI, 2025):
Each block holds one molecule with its values, some of them ahead of it.

Test system: PDC 899932-113-R3-J6 complex spheroid viability
Experiment: Anticancer human tumor 899932-113-R3-J6-PDC patient-derived melanoma cell line growth inhibition [RAS]
Settings: for IC50: curve of first compound; for viability, T/C: stronger effect = lower value
In short: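 Tumour cells grown as complex spheroids with HUVEC endothelial cells and mesenchymal stem cells, treated with RAS pathway inhibitor combinations. Each agent spans half-log steps from near clinical Cmax, or 10 microM where Cmax is unknown.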

[1] = second compound 0.000949 µM, first compound 0.0316 µM
[2] = second compound 0.000949 µM, first compound 0.1 µM
[3] = second compound 0.000949 µM, first compound 0.316 µM
[4] = second compound 0.000949 µM, first compound 1 µM
[5] = second compound 0.000949 µM, first compound 3.16 µM
[6] = second compound 0.000949 µM, first compound 10 µM
[7] = second compound 0.003 µM, first compound 0.0316 µM
[8] = second compound 0.003 µM, first compound 0.1 µM
[9] = second compound 0.003 µM, first compound 0.316 µM
[10] = second compound 0.003 µM, first compound 1 µM
[11] = second compound 0.003 µM, first compound 3.16 µM
[12] = second compound 0.003 µM, first compound 10 µM
[13] = second compound 0.00949 µM, first compound 0.0316 µM
[14] = second compound 0.00949 µM, first compound 0.1 µM
[15] = second compound 0.00949 µM, first compound 0.316 µM
[16] = second compound 0.00949 µM, first compound 1 µM
[17] = second compound 0.00949 µM, first compound 3.16 µM
[18] = second compound 0.00949 µM, first compound 10 µM
[19] = second compound 0.03 µM, first compound 0.0316 µM
[20] = second compound 0.03 µM, first compound 0.1 µM
[21] = second compound 0.03 µM, first compound 0.316 µM
[22] = second compound 0.03 µM, first compound 1 µM
[23] = second compound 0.03 µM, first compound 3.16 µM
[24] = second compound 0.03 µM, first compound 10 µM
[25] = second compound 0.0949 µM, first compound 0.0316 µM
[26] = second compound 0.0949 µM, first compound 0.1 µM
[27] = second compound 0.0949 µM, first compound 0.316 µM
[28] = second compound 0.0949 µM, first compound 1 µM
[29] = second compound 0.0949 µM, first compound 3.16 µM
[30] = second compound 0.0949 µM, first compound 10 µM
[31] = second compound 0.3 µM, first compound 0.0316 µM
[32] = second compound 0.3 µM, first compound 0.1 µM
[33] = second compound 0.3 µM, first compound 0.316 µM
[34] = second compound 0.3 µM, first compound 1 µM
[35] = second compound 0.3 µM, first compound 3.16 µM
[36] = second compound 0.3 µM, first compound 10 µM
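Throughout, for viability, T/C: spheroids exposed to agents for seven days before readout; 100% = DMSO vehicle control wells.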

IC50 (second compound 0.000949 µM): 239 nM
IC50 (second compound 0.003 µM): < 31.6 nM
IC50 (second compound 0.00949 µM): < 31.6 nM
IC50 (second compound 0.03 µM): < 31.6 nM
IC50 (second compound 0.0949 µM): < 31.6 nM
IC50 (second compound 0.3 µM): < 31.6 nM
Compound: CC1(O)CCCC1n1c(=O)c(C(F)F)cc2cnc(NC3CCN(S(C)(=O)=O)CC3)nc21 (centres undefined) + CCn1c(-c2cc(N3CCN(C)CC3)cnc2C(C)OC)c2c3cc(ccc31)-c1csc(n1)CC(NC(=O)C1CC1C)C(=O)N1CCCC(N1)C(=O)OCC(C)(C)C2
viability, T/C [1]: 77.9%
viability, T/C [2]: 54.2%
viability, T/C [3]: 49.5%
viability, T/C [4]: 39.3%
viability, T/C [5]: 37.1%
viability, T/C [6]: 27.2%
viability, T/C [7]: 41.5%
viability, T/C [8]: 33%
viability, T/C [9]: 27.5%
viability, T/C [10]: 25.6%
viability, T/C [11]: 26.6%
viability, T/C [12]: 14.1%
viability, T/C [13]: 4.88%
viability, T/C [14]: 6.46%
viability, T/C [15]: 7.99%
viability, T/C [16]: 9.02%
viability, T/C [17]: 8.75%
viability, T/C [18]: 4.7%
viability, T/C [19]: 2.99%
viability, T/C [20]: 2.96%
viability, T/C [21]: 3.21%
viability, T/C [22]: 3.04%
viability, T/C [23]: 3.2%
viability, T/C [24]: 1.24%
viability, T/C [25]: 2.41%
viability, T/C [26]: 2.7%
viability, T/C [27]: 2.57%
viability, T/C [28]: 3.02%
viability, T/C [29]: 2.41%
viability, T/C [30]: 0.82%
viability, T/C [31]: 1.98%
viability, T/C [32]: 2.13%
viability, T/C [33]: 2.07%
viability, T/C [34]: 1.97%
viability, T/C [35]: 2.39%
viability, T/C [36]: 0.63%

IC50 (second compound 0.000949 µM): 1070 nM
IC50 (second compound 0.003 µM): < 31.6 nM
IC50 (second compound 0.00949 µM): < 31.6 nM
IC50 (second compound 0.03 µM): < 31.6 nM
IC50 (second compound 0.0949 µM): < 31.6 nM
IC50 (second compound 0.3 µM): < 31.6 nM
Compound: CCC(CC)c1cc(NC2CCC(N)C2)n2nccc2n1 (centres undefined) + CCn1c(-c2cc(N3CCN(C)CC3)cnc2C(C)OC)c2c3cc(ccc31)-c1csc(n1)CC(NC(=O)C1CC1C)C(=O)N1CCCC(N1)C(=O)OCC(C)(C)C2
viability, T/C [1]: 69.1%
viability, T/C [2]: 73.5%
viability, T/C [3]: 64.5%
viability, T/C [4]: 53.2%
viability, T/C [5]: 0.22%
viability, T/C [6]: 0.15%
viability, T/C [7]: 28.8%
viability, T/C [8]: 28.2%
viability, T/C [9]: 26.5%
viability, T/C [10]: 16.3%
viability, T/C [11]: 0.58%
viability, T/C [12]: 0.66%
viability, T/C [13]: 3.22%
viability, T/C [14]: 4.26%
viability, T/C [15]: 3.48%
viability, T/C [16]: 4.75%
viability, T/C [17]: 0.1%
viability, T/C [18]: 0.59%
viability, T/C [19]: 3.14%
viability, T/C [20]: 3.12%
viability, T/C [21]: 3.99%
viability, T/C [22]: 2.67%
viability, T/C [23]: 0.09%
viability, T/C [24]: 0.83%
viability, T/C [25]: 2.55%
viability, T/C [26]: 2.58%
viability, T/C [27]: 2.46%
viability, T/C [28]: 1.27%
viability, T/C [29]: 0.74%
viability, T/C [30]: 0.84%
viability, T/C [31]: 2.43%
viability, T/C [32]: 3.04%
viability, T/C [33]: 2.55%
viability, T/C [34]: 1.37%
viability, T/C [35]: 0.48%
viability, T/C [36]: 0.89%
